In PubChem BioAssay (NCI):
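Compound exposure: 48 hours, 5 concentrations, 96-well plates. At the TGI there is no net growth.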

Key:
Assay in all cases: growth of human tumour cells (NCI), 48 h
MOLT-4 leukemia = test system: MOLT-4 leukemia
SNB-75 CNS = test system: SNB-75 CNS
IGROV1 ovarian = test system: IGROV1 ovarian
RPMI-8226 leukemia = test system: RPMI-8226 leukemia
LOX IMVI melanoma = test system: LOX IMVI melanoma
KM12 colon = test system: KM12 colon
TK-10 renal = test system: TK-10 renal
UACC-257 melanoma = test system: UACC-257 melanoma
SK-MEL-28 melanoma = test system: SK-MEL-28 melanoma
SR leukemia = test system: SR leukemia

`Fc1cccc(F)c1C1SCc2nc3ccc(Cl)cc3n21` (centres undefined) showed a TGI (MOLT-4 leukemia) of over 100 µM, a TGI (SNB-75 CNS) of over 100 µM and a TGI (IGROV1 ovarian) of over 100 µM. The TGI (RPMI-8226 leukemia) was over 100 µM, the TGI (LOX IMVI melanoma) was over 100 µM and the TGI (KM12 colon) was over 100 µM. For the same compound, the TGI (TK-10 renal) was over 100 µM, the TGI (UACC-257 melanoma) was over 100 µM and the TGI (SK-MEL-28 melanoma) was over 100 µM. It also gave a TGI (SR leukemia) of over 100 µM.

`CCOC(=O)C1=COC(C)(CCc2ccccc2)CC1=O` (centres undefined) was tested, and the TGI (MOLT-4 leukemia) was over 100 µM, the TGI (SNB-75 CNS) was over 100 µM and the TGI (RPMI-8226 leukemia) was over 100 µM. For the same compound, the TGI (KM12 colon) was over 100 µM, the TGI (TK-10 renal) was over 100 µM and the TGI (UACC-257 melanoma) was over 100 µM. The TGI (SK-MEL-28 melanoma) was over 100 µM.

In the case of `Cn1c(N/N=C/c2ccccc2)nc(-c2ccc([N+](=O)[O-])cc2)c(C#N)c1=O`, the TGI (MOLT-4 leukemia) is reported as over 100 µM, the TGI (SNB-75 CNS) is reported as over 100 µM and the TGI (IGROV1 ovarian) is reported as over 100 µM. The TGI (RPMI-8226 leukemia) was over 100 µM, the TGI (LOX IMVI melanoma) was over 100 µM and the TGI (KM12 colon) was over 100 µM. It also gave a TGI (TK-10 renal) of over 100 µM, a TGI (UACC-257 melanoma) of over 100 µM and a TGI (SK-MEL-28 melanoma) of over 100 µM. For the same compound, the TGI (SR leukemia) was over 100 µM.

Work on `COc1ccc(-n2sc3ncccc3c2=O)cc1` yielded a TGI (MOLT-4 leukemia) of over 100 µM, a TGI (SNB-75 CNS) of 51 µM and a TGI (IGROV1 ovarian) of 61.2 µM. It also gave a TGI (RPMI-8226 leukemia) of over 100 µM, a TGI (LOX IMVI melanoma) of over 100 µM and a TGI (KM12 colon) of 34.5 µM. For the same compound, the TGI (TK-10 renal) was 33.5 µM, the TGI (UACC-257 melanoma) was 34.2 µM and the TGI (SK-MEL-28 melanoma) was 44.3 µM. The TGI (SR leukemia) was 55.1 µM.

For `NNC(=O)c1cc(=O)[nH][nH]1`, the TGI (MOLT-4 leukemia) was over 100 µM, the TGI (SNB-75 CNS) was over 100 µM and the TGI (IGROV1 ovarian) was over 100 µM. The TGI (RPMI-8226 leukemia) was over 100 µM, the TGI (KM12 colon) was over 100 µM and the TGI (TK-10 renal) was over 100 µM. For the same compound, the TGI (UACC-257 melanoma) was over 100 µM.

`COc1cc(C2c3cc4c(cc3OC(NCCO)C2C)OCO4)cc(OC)c1OC` (centres undefined) gave a TGI (MOLT-4 leukemia) of 26.3 µM, a TGI (SNB-75 CNS) of over 71.7 µM and a TGI (IGROV1 ovarian) of over 100 µM. It also gave a TGI (RPMI-8226 leukemia) of over 34 µM, a TGI (LOX IMVI melanoma) of over 100 µM and a TGI (KM12 colon) of over 70.2 µM. The TGI (TK-10 renal) was over 96.3 µM, the TGI (UACC-257 melanoma) was over 100 µM and the TGI (SK-MEL-28 melanoma) was over 100 µM.

`CN(C)c1cc[n+](-c2nc(/N=C(\[O-])C(F)(F)F)nc3c2ncn3C2CC(O)C(CO)O2)cc1` (centres undefined) showed a TGI (MOLT-4 leukemia) of over 100 µM, a TGI (SNB-75 CNS) of over 100 µM and a TGI (IGROV1 ovarian) of over 100 µM. For the same compound, the TGI (RPMI-8226 leukemia) was over 100 µM, the TGI (LOX IMVI melanoma) was over 100 µM and the TGI (KM12 colon) was over 100 µM. The TGI (TK-10 renal) was over 100 µM and the TGI (SK-MEL-28 melanoma) was over 100 µM.

With `NC(Cc1ccc(S(=O)(=O)O)cc1)C(=O)NC(Cc1ccc(S(=O)(=O)O)cc1)C(=O)O` (centres undefined) the TGI (MOLT-4 leukemia) was over 100 µM, the TGI (SNB-75 CNS) was over 100 µM and the TGI (IGROV1 ovarian) was over 100 µM. It also gave a TGI (RPMI-8226 leukemia) of over 100 µM, a TGI (LOX IMVI melanoma) of over 100 µM and a TGI (KM12 colon) of over 100 µM. For the same compound, the TGI (TK-10 renal) was over 100 µM, the TGI (UACC-257 melanoma) was over 100 µM and the TGI (SK-MEL-28 melanoma) was over 100 µM.

`CCOC(=O)Cc1nc2c(N)ncnc2n1C1OC(COC(C)=O)C(OC(C)=O)C1OC(C)=O` (centres undefined) gave a TGI (MOLT-4 leukemia) of over 100 µM, a TGI (IGROV1 ovarian) of over 100 µM and a TGI (RPMI-8226 leukemia) of over 100 µM. The TGI (LOX IMVI melanoma) was over 100 µM, the TGI (KM12 colon) was over 100 µM and the TGI (TK-10 renal) was over 100 µM. It also gave a TGI (UACC-257 melanoma) of over 100 µM, a TGI (SK-MEL-28 melanoma) of over 100 µM and a TGI (SR leukemia) of over 100 µM.

Work on `C[C@H]1S[C@H](c2c(Cl)cccc2Cl)N2Cc3ccccc3N=C12` yielded a TGI (MOLT-4 leukemia) of over 100 µM, a TGI (SNB-75 CNS) of 32.4 µM and a TGI (IGROV1 ovarian) of 26.1 µM. For the same compound, the TGI (RPMI-8226 leukemia) was over 100 µM, the TGI (LOX IMVI melanoma) was 32.6 µM and the TGI (KM12 colon) was 27.8 µM. For the same compound, the TGI (TK-10 renal) was 41.9 µM, the TGI (UACC-257 melanoma) was 45.6 µM and the TGI (SR leukemia) was over 100 µM.

`CCOC(=O)C1=C(C)N(c2ccc(OC)cc2)C2(O)C=CC(=O)C3=C(O)c4ccccc4C(=O)C312` (centres undefined) showed a TGI (MOLT-4 leukemia) of 20.5 µM, a TGI (IGROV1 ovarian) of 15.6 µM and a TGI (RPMI-8226 leukemia) of 10.9 µM. For the same compound, the TGI (LOX IMVI melanoma) was 22.4 µM, the TGI (KM12 colon) was 29.2 µM and the TGI (TK-10 renal) was 27.4 µM. It also gave a TGI (UACC-257 melanoma) of 31.2 µM.

`O=C(CCc1ccccc1)On1c(-c2ccccc2)nc2ccccc2c1=S` gave a TGI (MOLT-4 leukemia) of 23.3 µM, a TGI (SNB-75 CNS) of over 100 µM and a TGI (IGROV1 ovarian) of over 100 µM. For the same compound, the TGI (RPMI-8226 leukemia) was over 100 µM, the TGI (LOX IMVI melanoma) was 83.6 µM and the TGI (KM12 colon) was 24 µM. The TGI (TK-10 renal) was over 100 µM, the TGI (UACC-257 melanoma) was over 100 µM and the TGI (SK-MEL-28 melanoma) was over 100 µM.
